Assays:
[1] = tested on: isolated rat atrial strip; test: Isolated atrial strip model of metabolic stress induced atrial conduction slowing; conditions: rat left atrial strip; 40 min glucose-free, non-oxygenated buffer; control decreased by 22%
Method: Peptides suitable for administration to cardiac cells can be identified in an in vitro model as described by Haugan et al. (J. Cardiovasc. Electrophysiol., 16, 537-545 (2005)).
Rats (300-400 g) are killed by a sharp blow on the neck. The heart is rapidly excised and transferred to a small dish containing 37° oxygenated modified Tyrodes buffer containing (in mM): NaCl 136, KCl 4, MgCl2 0.8, CaCl2 1.8 HEPES 5, MES 5, Glucose 6, pH 7.3. The left atrium is carefully dissected and a tissue sample of approximately 2×6 mm is taken from the left atrial appendage and placed in a tissue chamber (volume 5 ml), (Steiert Organ Bath, Hugo Sach Electronic, Germany). The chamber is perfused throughout the study with 37° C. oxygenated Tyrodes buffer at a rate of 10 ml/min.
A bipolar stimulation electrode (Teflon coated stainless steel, diameter […]) is placed at one end of the tissue. Stimulation is performed at 1 Hz using rectangular pulses at double threshold (duration of stimulus 0.2 ms) delivered by a stimulator (Hugo Sachs, Type 215) through an isolation unit (Universal Isolated Stimulator Unit type 263, Hugo Sachs, Germany).
Two separate microelectrodes of pure iridium (World Precision Instruments, tip-impedance 3.5-4.0 MΩ) are placed on a line along the long-axis of the preparation for recording of atrial CV. […]

[2] = tested on: dogs subjected to a 60-min coronary artery occlusion and 4 hr reperfusion; test: Canine infarct size and reperfusion arrhythmia model; assay type: in vivo; conditions: dog, two highest doses; for Total incidence of VT: IV 10-min before reperfusion, controls 23.0±6.1; for Total PVC's: during reperfusion, control 11.1±1.6%; for Infarct size, expressed as percent of left ventricle: controls 19.0±3.5
Method: Compound 2 was tested in dogs subjected to a 60-min coronary artery occlusion and 4 hr reperfusion, as described by Hennan et al. ([…]., 317, 236-43 (2006)). Compound 2 was administered IV 10-min before reperfusion as a bolus+IV infusion at doses of: 0.25 μg/kg bolus+0.19 μg/kg/hr infusion (n=6); 2.5 μg/kg bolus+1.9 μg/kg/hr infusion (n=7); 25 μg/kg bolus+19 μg/kg/hr infusion (n=6); 75 μg/kg bolus+57 μg/kg/hr infusion (n=5); vehicle control (n=7). Premature ventricular complexes (PVC's) were quantified during reperfusion. Four or more consecutive PVC's was defined as ventricular tachycardia (VT).

[3] = first value (25 μg/kg bolus+19 μg/kg/hr infusion)
[4] = second value (75 μg/kg bolus+57 μg/kg/hr infusion)

NCC(=O)N1C[C@H](NC(=O)c2ccccc2)C[C@H]1C(=O)O [Compound 2, (2S4R)1-(2-Amino-acetyl)-4-benzoylamino-pyrrolidine-2-carboxylic acid]
atrial conduction velocity change compared to baseline [1]: did not change compared to baseline
Total incidence of VT [2, 3]: 1.7±0.8 events
Total incidence of VT [2, 4]: 2.2±1.4 events
Total PVC's [2, 3]: 2.0±0.7%
Total PVC's [2, 4]: 1.8±0.8%
Infarct size, expressed as percent of left ventricle [2, 3]: 7.9±1.5%
Infarct size, expressed as percent of left ventricle [2, 4]: 7.1±0.8%
